Source: US9040261B2, “Compounds as L-cystine crystallization inhibitors and uses thereof” (NEW YORK UNIVERSITY, priority 2009, dated 2015)
Marks after values point to notes of the source that are not given here.

Legend:
[1] = AFM step velocity and hillock imaging with L-cystine diesters under continuous flow
Description: Atomic force microscopy was performed with a Digital Instruments (Santa Barbara, Calif.) Nanoscope Ma Multimode system. All measurements were performed in a cell designed to contain liquids for in situ imaging, including step velocity measurements. All measurements were performed in contact mode using Veeco NP_B Si3N4 tips on silicon nitride cantilevers with a spring constant of 0.12N/m (triangular, 196 μm length, 41 μm width). L-cystine crystals (hexagonal form) were transferred onto an AFM specimen disk coated with partially cured (1 hr) UV-curable optical cement (Type SK-9, EMS Acquisition Corp.) by gently pressing the disk against hexagonal platelets collected by filtration (Whatman Nuclepore membrane, 8 μm). The (001) faces of the hexagonal plates naturally aligned parallel with the specimen disk such that the velocity of the equivalent {100} steps could be measured readily by AFM. The partially cured polymer with the adhered crystals was cured completely by additional UV radiation (2 hrs) prior to analysis. The mounted L-cystine crystals were etched slightly by immersion in deionized water for 30 sec at 60° C. to remove amorphous deposits or impurities that may be present on the surface. Step velocities on the hexagonal L-cystine crystals were measured by AFM using a fluid cell containing an aqueous solution, supersaturated with L-cystine (2 mM), introduced to the cell via a syringe. Step velocities were determined by measuring the distance of the steps from a reference point, usually the dislocation core, in consecutive deflection images acquired at periodic intervals, ranging from 9-14 sec. Measurements were acquired under continuous flow of fresh solution in order to maintain constant supersaturation and additive concentration. […] The step velocities, which correspond to the crystal growth rates, were measured with and without inhibitor for each pair.

[2] = dosages between 100 mg/L and 20 g/L per day; ATP, reactive oxygen species levels, cell viability; cited from earlier work
[3] = Bulk crystallization of L-cystine in the presence of additives (mass yield); conditions: for Yield (%) = (collected mass by filtration, >11 μm)/(total mass added) × 100%: 2 mg/L additive, 0.7 g/L L-cystine (pH 6.8), no additive 80, approximate error ±8%, Dihydrochloride
Description: Alternately, the hexagonal crystals can be obtained by crystallization performed near neutral pH (Sa) The hexagonal form was crystallized from a supersaturated L-cystine solution prepared by adding 70 mg of L-cystine to 100 mL of deionized water (3 mM), and heating under reflux at 100° C. for 20 min with stirring to completely dissolve L-cystine. […] This concentration was used for bulk crystallization studies in the presence of additives so that a measurable amount of bulk crystals could be obtained in a reasonable time. The solution was then allowed to cool slowly with stirring for 75 min. 30 mL aliquots were transferred to separate glass containers, which were then sealed to prevent evaporation and exposure to airborne particulates and stored for 72 hours at room temperature without stirring. […] The crystals retrieved in this manner were used for AFM studies by mounting individual crystals according to the procedure described below.
Various proteins, poly-amino acids, and molecular mimics of L-cystine were examined as additives. The aforementioned procedure for hexagonal platelet crystallization was repeated. Following the 75 min cooling period, prior to any observable crystallization, the additive was added to the supersaturated L-cystine solution to the desired concentration. […] Crystallization without additive was performed in an identical manner for comparison using a control solution from the same batch. The mass yields of L-cystine crystals were obtained by dividing the mass of L-cystine crystals (collected from growth solution by filtration) by the mass of L-cystine added in the growth solution.
Additives chosen for these studies were various proteins, poly-amino acids, and molecular mimics of L-cystine (see Table 1). The above procedure for hexagonal platelet crystallization was repeated until completion of the 75 min cooling period, at which point 29.5 g of solution was transferred to a 100 mL beaker containing 0.5 g of separately prepared additive solution to yield net concentrations of 2 mg/L additive and 0.7 g/L L-cystine. Additive solutions were replaced with deionized water of equivalent volume for control measurements. […]
L-cystine bulk crystallization was investigated in the presence of various polymers, urinary constituents, fish antifreeze proteins (AFPs), and L-cystine derivatives (i.e. structural mimics of L-cystine), which were analyzed as possible growth inhibitors of hexagonal L-cystine. The potency of each additive was assessed by comparing the difference in crystal yield (Table 1), which is equal to the mass of crystals formed in the presence of 2 mg/L additive (isolated with […]) divided by the total mass of L-cystine (700 mg/L).

COC(=O)[C@@H](N)CSSC[C@H](N)C(=O)OC.Cl.Cl [CDME, Cystine Dimethyl Ester Dihydrochloride]
order of step roughening, corresponding to the trend in inhibition ([1]; 0.015 mM inhibitor, 2 mM L-cystine): L-CDME>L-CDEE>L-CDIE>L-CDTE | inhibition of step velocity compared among four L-cystine diesters ([1]; 0.015 M inhibitor): best inhibitor | toxicity in cell culture and in vivo animal studies [2]: possible adverse affects | CDME concentration sufficient to inhibit in vitro L-cystine crystallization ([3]; 2 mM L-cystine): ~25 mg/L | Yield (%) = (collected mass by filtration, >11 μm)/(total mass added) × 100% [3]: 13% | Yield (%) = (collected mass by filtration, >11 μm)/(total mass added) × 100% ([3]; listed as L-cystine dimethyl ester): 13* % | CDME amount sufficient to suppress crystallization ([3]; 25 mg/L CDME in supersaturated L-cystine, 8 μm filter pores): 3 wt % | mass yield of needles less than the yield of platelets in the absence of additive ([3]; CDME concentration approaching 5 mg/L): more than 70% | CDME dosage that may be sufficient to inhibit in vivo L-cystine crystallization ([3]; extrapolated from 2 mM to physiological urine L-cystine (~0.4 mM)): less than 4 mg/L
